# US20100022491A1, “4-HYDROXY-2-OXO-2,3-DIHYDRO-1,3-BENZOTHIAZOL-7YL COMPOUNDS FOR MODULATION OF B2-ADRENORECEPTOR ACTIVITY” (ASTRAZENECA AB, priority 2006, published 2010)
# Counter-ions that a name gives are not always drawn.
# Target: T1, recombinant human α1D receptor (Homo sapiens, UniProt P25100)
# T1 construct: expressed in transfected cells; host or cells: HEK293
# T1 sequence (P25100 1-572): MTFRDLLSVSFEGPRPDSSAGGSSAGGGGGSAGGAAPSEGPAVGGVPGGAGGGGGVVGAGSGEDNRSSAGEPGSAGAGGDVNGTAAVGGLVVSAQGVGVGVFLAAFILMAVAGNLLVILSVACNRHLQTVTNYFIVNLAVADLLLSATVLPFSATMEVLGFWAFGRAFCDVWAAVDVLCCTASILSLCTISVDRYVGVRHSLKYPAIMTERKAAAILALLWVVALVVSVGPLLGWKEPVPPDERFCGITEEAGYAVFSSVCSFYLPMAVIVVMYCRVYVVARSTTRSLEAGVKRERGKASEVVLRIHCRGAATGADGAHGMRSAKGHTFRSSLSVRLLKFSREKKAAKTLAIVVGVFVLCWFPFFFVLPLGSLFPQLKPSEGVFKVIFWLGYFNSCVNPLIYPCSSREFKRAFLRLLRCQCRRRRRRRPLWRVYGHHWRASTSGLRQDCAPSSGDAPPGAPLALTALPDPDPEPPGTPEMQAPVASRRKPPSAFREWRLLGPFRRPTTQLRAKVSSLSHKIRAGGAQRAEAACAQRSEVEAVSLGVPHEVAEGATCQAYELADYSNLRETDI
# Assay: Adrenergic α1D selectivity binding assay ([3H]-prazosin)
# Details: inhibition of [3H]-prazosin (0.3 nM) binding, HEK293 membranes
# Method in brief: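 HEK293 membranes with recombinant human α1D receptor incubated 2 h at room temperature with 0.3 nM [3H]-prazosin and compound in 50 mM HEPES, 1 mM EDTA, 0.1% gelatin, pH 7.4; BMY7378 (10 μM) defined non-specific binding. Filter-bound radioactivity counted; pIC50 from four-parameter logistic fit.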
row,Structure (SMILES),α1 bind pIC50
1,"O=C(CCNCCc1cccc(F)c1)N(CCNCCc1ccc(O)c2[nH]c(=O)sc12)C1CCCCC1 [Example 15, N-Cyclohexyl-N^3-[2-(3-fluorophenyl)ethyl]-N-(2-{[2-(4-hydroxy-2-oxo-2,3-dihydro-1,3-benzothiazol-7-yl)ethyl]amino}ethyl)-β-alaninamide bis-trifluoroacetic acid salt]",6.7

# Same assay, conditions: inhibition of [3H]-prazosin (0.3 nM) binding, HEK293 membranes; read-out: α1 bind pIC50 (converted)
row,IC50 [µM],Structure (SMILES)
1,0.1,"O=C(CCNCCc1ccccc1Cl)N(CCNCCc1ccc(O)c2[nH]c(=O)sc12)C1CCCC1 [Example 29, N^3-[2-(2-Chlorophenyl)ethyl]-N-cyclopentyl-N-(2-{[2-(4-hydroxy-2-oxo-2,3-dihydro-1,3-benzothiazol-7-yl)ethyl]amino}ethyl)-β-alaninamide bis-trifluoroacetic acid salt]"
2,0.2,"O=C(CCNCCc1cccc(O)c1)N(CCNCCc1ccc(O)c2[nH]c(=O)sc12)C1CCCCC1 [Example 71, N^1-Cyclohexyl-N^1-(2-{[2-(4-hydroxy-2-oxo-2,3-dihydro-1,3-benzothiazol-7-yl)ethyl]amino}ethyl)-N^3-[2-(3-hydroxyphenyl)ethyl]-β-alaninamide bis-trifluoroacetic acid salt]"
3,0.0631,"O=C(CCNCCc1cccc(Cl)c1)N(CCNCCc1ccc(O)c2[nH]c(=O)sc12)C1Cc2ccccc2C1 [Example 42, N^3-[2-(3-Chlorophenyl)ethyl]-N^1-(2,3-dihydro-1H-inden-2-yl)-N^1-(2-{[2-(4-hydroxy-2-oxo-2,3-dihydro-1,3-benzothiazol-7-yl)ethyl]amino}ethyl)-β-alaninamide bis-trifluoroacetic acid salt]"
4,0.251,"O=C(CCNCCc1cccc(C(F)(F)F)c1)N(CCNCCc1ccc(O)c2[nH]c(=O)sc12)C1CCCCCC1 [Example 82, N^1-Cycloheptyl-N^1-(2-{[2-(4-hydroxy-2-oxo-2,3-dihydro-1,3-benzothiazol-7-yl)ethyl]amino}ethyl)-N^3-{2-[3-(trifluoromethyl)phenyl]ethyl}-β-alaninamide bis-trifluoroacetic acid salt]"
5,0.158,"NS(=O)(=O)c1ccc(CCNCCC(=O)N(CCNCCc2ccc(O)c3[nH]c(=O)sc23)C2CCCCC2)cc1 [Example 69, N^3-{2-[4-(Aminosulfonyl)phenyl]ethyl}-N^1-cyclohexyl-N^1-(2-{[2-(4-hydroxy-2-oxo-2,3-dihydro-1,3-benzothiazol-7-yl)ethyl]amino}ethyl)-β-alaninamide bis-trifluoroacetic acid salt]"
6,0.2,"CC(C)(CO)CN(CCNCCc1ccc(O)c2[nH]c(=O)sc12)C(=O)CCNCCc1cccc(Cl)c1Cl [Example 67, N^3-[2-(2,3-Dichlorophenyl)ethyl]-N^1-(3-hydroxy-2,2-dimethylpropyl)-N^1-(2-{[2-(4-hydroxy-2-oxo-2,3-dihydro-1,3-benzothiazol-7-yl)ethyl]amino}ethyl)-β-alaninamide bis-trifluoroacetic acid salt]"
7,0.316,"O=C(CCNCCc1ccc(Cl)cc1)N(CCNCCc1ccc(O)c2[nH]c(=O)sc12)C1CCCCC1 [Example 13, N^3-[2-(4-Chlorophenyl)ethyl]-N-cyclohexyl-N-(2-{[2-(4-hydroxy-2-oxo-2,3-dihydro-1,3-benzothiazol-7-yl)ethyl]amino}ethyl)-β-alaninamide bis-trifluoroacetic acid salt]"
8,0.1,"O=C(CCNCCc1c(F)cccc1F)N(CCNCCc1ccc(O)c2[nH]c(=O)sc12)C1CCCCCC1 [Example 84, N^1-Cycloheptyl-N^3-[2-(2,6-difluorophenyl)ethyl]-N^1-(2-{[2-(4-hydroxy-2-oxo-2,3-dihydro-1,3-benzothiazol-7-yl)ethyl]amino}ethyl)-β-alaninamide bis-trifluoroacetic acid salt]"
9,0.0501,"O=C(CCNCCc1ccc(F)cc1F)N(CCNCCc1ccc(O)c2[nH]c(=O)sc12)C1CCCCCC1 [Example 55, N^1-Cycloheptyl-N^3-[2-(2,4-difluorophenyl)ethyl]-N^1-(2-{[2-(4-hydroxy-2-oxo-2,3-dihydro-1,3-benzothiazol-7-yl)ethyl]amino}ethyl)-β-alaninamide bis-trifluoroacetic acid salt]"
10,0.316,"O=C(CCNCCc1ccc(Cl)cc1)N(CCNCCc1ccc(O)c2[nH]c(=O)sc12)C1CCCC1 [Example 28, N^3-[2-(4-Chlorophenyl)ethyl]-N-cyclopentyl-N-(2-{[2-(4-hydroxy-2-oxo-2,3-dihydro-1,3-benzothiazol-7-yl)ethyl]amino}ethyl)-β-alaninamide bis-trifluoroacetic acid salt]"
11,0.158,"Cc1cccc(CCNCCC(=O)N(CCNCCc2ccc(O)c3[nH]c(=O)sc23)C2CCCCC2)c1 [Example 14, N-Cyclohexyl-N-(2-{[2-(4-hydroxy-2-oxo-2,3-dihydro-1,3-benzothiazol-7-yl)ethyl]amino}ethyl)-N^3-[2-(3-methylphenyl)ethyl]-β-alaninamide bis-trifluoroacetic acid salt]"
12,0.1,"CC(C)(CO)CN(CCNCCc1ccc(O)c2[nH]c(=O)sc12)C(=O)CCNCCc1ccccc1Cl [Example 65, N^3-[2-(2-Chlorophenyl)ethyl]-N^1-(3-hydroxy-2,2-dimethylpropyl)-N^1-(2-{[2-(4-hydroxy-2-oxo-2,3-dihydro-1,3-benzothiazol-7-yl)ethyl]amino}ethyl)-β-alaninamide bis-trifluoroacetic acid salt]"
13,0.794,"CC(C)(C)CN(CCNCCc1ccc(O)c2[nH]c(=O)sc12)C(=O)CCNC(C)(C)Cc1ccccc1 [Example 38, N^3-(1,1-Dimethyl-2-phenylethyl)-N-(2,2-dimethylpropyl)-N-(2-{[2-(4-hydroxy-2-oxo-2,3-dihydro-1,3-benzothiazol-7-yl)ethyl]amino}ethyl)-β-alaninamide bis-trifluoroacetic acid salt]"
14,0.316,"O=C(CCNCCc1cccc(OC(F)F)c1)N(CCNCCc1ccc(O)c2[nH]c(=O)sc12)C1CCCCCC1 [Example 54, N-Cycloheptyl-N^3-{2-[3-(difluoromethoxy)phenyl]ethyl}-N^1-(2-{[2-(4-hydroxy-2-oxo-2,3-dihydro-1,3-benzothiazol-7-yl)ethyl]amino}ethyl)-β-alaninamide bis-trifluoroacetic acid salt]"
15,0.316,"O=C(CCNCCc1ccc(F)cc1)N(CCNCCc1ccc(O)c2[nH]c(=O)sc12)CC12CC3CC(CC(C3)C1)C2 [Example 61, N^1-(1-Adamantylmethyl)-N^3-[2-(4-fluorophenyl)ethyl]-N^1-(2-{[2-(4-hydroxy-2-oxo-2,3-dihydro-1,3-benzothiazol-7-yl)ethyl]amino}ethyl)-β-alaninamide bis-trifluoroacetic acid salt]"
